Reference: ChEMBL document CHEMBL1201862, “PubChem BioAssay data set” (2004)
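Each compound was tested at five concentrations against cells in 96-well plates for 48 hours. The concentration for 50% growth inhibition is given as GI50.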 Calls of active or inactive are those of the source. Cut-off read from the data, not from the text of the source: active = GI50 up to about 1.1 µM and inactive = higher.

How the values were obtained:
Test in all cases: DTP human tumour cell line panel, 48 h
[1] = test system: HCT-116
[2] = test system: MDA-N
[3] = test system: HOP-62
[4] = test system: MOLT-4
[5] = test system: SN12C
[6] = test system: NCI-H522
[7] = test system: CCRF-CEM
[8] = test system: OVCAR-4
[9] = test system: NCI-H226
[10] = test system: A498
[11] = test system: HL-60
[12] = test system: MDA-MB-435
[13] = test system: T47D
[14] = test system: U-251
[15] = test system: RPMI-8226
[16] = test system: PC-3
[17] = test system: SK-MEL-2
[18] = test system: M14
[19] = test system: NCI-H23
[20] = test system: A549
[21] = test system: DU-145
[22] = test system: SK-OV-3
[23] = test system: NCI/ADR-RES
[24] = test system: TK-10
[25] = test system: SW-620
[26] = test system: OVCAR-3
[27] = test system: CAKI-1
[28] = test system: SNB-75
[29] = test system: KM12
[30] = test system: SR
[31] = test system: HT-29
[32] = test system: LOX IMVI
[33] = test system: HCC 2998
[34] = test system: ACHN
[35] = test system: SF-539
[36] = test system: OVCAR-5
[37] = test system: OVCAR-8
[38] = test system: IGROV-1
[39] = test system: UO-31
[40] = test system: NCI-H460
[41] = test system: UACC-62
[42] = test system: UACC-257
[43] = test system: HCT-15
[44] = test system: SNB-19
[45] = test system: K562
[46] = test system: HOP-92
[47] = test system: COLO 205
[48] = test system: Malme-3M
[49] = test system: 786-0
[50] = test system: SK-MEL-28
[51] = test system: BT-549
[52] = test system: MDA-MB-231
[53] = test system: SF-295
[54] = test system: SK-MEL-5
[55] = test system: Hs-578T
[56] = test system: MCF7
[57] = test system: RXF 393
[58] = test system: SF-268
[59] = test system: EKVX

Measured: GI50

COc1ccc2c(=O)c3ccoc3n(CC=C(C)C)c2c1 [ACROPHYLLINE]
35.6 µM: [43]
inactive: [1] 52.7 µM | [2] 73.8 µM | [3] > 79.1 µM | [4] 25.2 µM | [5] > 100 µM | [6] 2.65 µM | [7] 39.4 µM | [8] 44.7 µM | [9] > 87.9 µM | [10] > 63.2 µM | [11] 23.6 µM | [12] 75.9 µM | [13] 36.1 µM | [14] > 100 µM | [15] 22.4 µM | [16] 36.4 µM | [17] 81.7 µM | [18] 64.4 µM | [19] 46.1 µM | [20] 7.14 µM | [21] 34 µM | [22] 44.7 µM | [23] 18.8 µM | [24] > 100 µM | [25] 97.3 µM | [26] 85.7 µM | [27] 2.99 µM | [28] 26.4 µM | [29] 45.9 µM | [30] 31 µM | [31] 47.2 µM | [32] 42.3 µM | [33] > 91.4 µM | [34] 8.49 µM | [35] 97.1 µM | [36] > 100 µM | [37] 39.5 µM | [38] 74.5 µM | [39] 18.2 µM | [40] 50.2 µM | [41] 48.4 µM | [42] 75.2 µM | [44] > 76.6 µM | [45] 48.9 µM | [46] > 26.2 µM | [47] > 85.3 µM | [48] 3.84 µM | [49] > 91.6 µM | [50] 60.5 µM | [51] 35.4 µM | [52] 72.9 µM | [53] 57.9 µM | [54] 32 µM | [55] 31.3 µM | [56] 33.7 µM | [57] 28.5 µM | [58] 78.2 µM | [59] 43.9 µM

O=C1N[C@H]2C(=O)c3c(Cl)sc(Cl)c3[C@H]2O1
3.86 µM: [43]
active: [7] 0.774 µM
inactive: [1] 3.66 µM | [2] 5.06 µM | [3] 16.5 µM | [4] 3.12 µM | [5] 10.9 µM | [6] 3.13 µM | [8] 2.15 µM | [9] 32.1 µM | [10] 24.1 µM | [11] 2.18 µM | [12] 4.81 µM | [13] 11.6 µM | [14] 3.32 µM | [15] 13.3 µM | [16] 14.2 µM | [17] 19.5 µM | [18] 6.28 µM | [19] 5.94 µM | [20] 19.5 µM | [21] 11.2 µM | [22] 15.5 µM | [23] 20.1 µM | [24] 29.2 µM | [25] 2.18 µM | [26] 1.92 µM | [27] 4.79 µM | [28] 15.5 µM | [29] 17.3 µM | [30] 2.56 µM | [31] 2.46 µM | [32] 2.7 µM | [33] 1.94 µM | [34] 7.6 µM | [35] 5.85 µM | [36] 19.4 µM | [37] 2.79 µM | [38] 4.69 µM | [39] 1.71 µM | [40] 18.1 µM | [41] 13.3 µM | [42] 6.7 µM | [44] 15.2 µM | [45] 1.99 µM | [46] 7.45 µM | [47] 6.52 µM | [48] 14.3 µM | [49] 14.2 µM | [50] 6.64 µM | [51] 23.3 µM | [52] 14.1 µM | [53] 16.9 µM | [54] 18.1 µM | [55] 23.2 µM | [56] 16.7 µM | [57] 3.42 µM | [58] 4.8 µM | [59] 2 µM
